Experimental data taken from ChEMBL document CHEMBL3045393, “Aryldiones incorporating a [1,4,5]oxadiazepane ring. Part I: Discovery of the novel cereal herbicide pinoxaden” (Bioorg Med Chem, 2009).
Active and inactive are the calls of the source. The calls are words filed in the database; no cut-off is given here.

What was measured:
[1] = test system: Triticum aestivum; experiment: Phytotoxicity against Triticum aestivum (wheat) at 30 g a.i./ha applied post-emergence measured after 21 days in presence of 1% Merge adjuvant; format: organism-based; conditions: in vivo, other, 504 h
[2] = test system: Hordeum vulgare; experiment: Phytotoxicity against Hordeum vulgare cv. Fanfare (barley) at 60 g a.i./ha applied post-emergence measured after 12 days in presence of cloquintocet-mexyl; format: functional
[3] = test system: Lolium rigidum; experiment: Post-emergence herbicidal activity against Lolium rigidum at 30 g a.i./ha measured after 20 days; format: functional
[4] = test system: Setaria faberi; experiment: Post-emergence herbicidal activity against Setaria faberi (Giant Foxtail) at 30 g a.i./ha measured after 21 days in presence of 1% Merge adjuvant; format: functional
[5] = test system: Triticum aestivum; experiment: Phytotoxicity against Triticum aestivum cv. Arina (wheat) at 60 g a.i./ha applied post-emergence measured after 12 days in presence of cloquintocet-mexyl; format: functional
[6] = test system: Hordeum vulgare; experiment: Phytotoxicity against Hordeum vulgare cv. Fanfare (barley) at 60 g a.i./ha applied post-emergence measured after 12 days; format: functional
[7] = test system: Triticum aestivum; experiment: Phytotoxicity against Triticum aestivum cv. Remia (wheat) at 60 g a.i./ha applied post-emergence measured after 12 days in presence of cloquintocet-mexyl; format: functional
[8] = test system: Avena fatua; experiment: Post-emergence herbicidal activity against Avena fatua at 30 g a.i./ha measured after 20 days in presence of cloquintocet-mexyl; format: functional
[9] = test system: Triticum aestivum; experiment: Phytotoxicity against Triticum aestivum cv. Arina (wheat) at 60 g a.i./ha applied post-emergence measured after 12 days; format: functional
[10] = test system: Lolium rigidum; experiment: Post-emergence herbicidal activity against Lolium rigidum at 30 g a.i./ha measured after 20 days in presence of cloquintocet-mexyl; format: functional
[11] = test system: Alopecurus myosuroides; experiment: Post-emergence herbicidal activity against Alopecurus myosuroides at 30 g a.i./ha measured after 21 days in presence of 1% Merge adjuvant; format: functional
[12] = test system: Avena fatua; experiment: Post-emergence herbicidal activity against Avena fatua at 30 g a.i./ha measured after 21 days in presence of 1% Merge adjuvant; format: functional
[13] = test system: Hordeum vulgare; experiment: Phytotoxicity against Hordeum vulgare (barley) at 30 g a.i./ha applied post-emergence measured after 21 days in presence of 1% Merge adjuvant; format: organism-based; conditions: in vivo, other, 504 h
[14] = test system: Lolium perenne; experiment: Post-emergence herbicidal activity against Lolium perenne (perennial ryegrass) at 30 g a.i./ha measured after 21 days in presence of 1% Merge adjuvant; format: functional
[15] = test system: Triticum aestivum; experiment: Phytotoxicity against Triticum aestivum cv. Remia (wheat) at 60 g a.i./ha applied post-emergence measured after 12 days; format: functional
[16] = test system: Avena fatua; experiment: Post-emergence herbicidal activity against Avena fatua at 30 g a.i./ha measured after 20 days; format: functional
[17] = test system: Alopecurus myosuroides; experiment: Post-emergence herbicidal activity against Alopecurus myosuroides at 30 g a.i./ha measured after 21 days in presence of 0.2% X-77 adjuvant; format: functional
[18] = test system: Lolium perenne; experiment: Post-emergence herbicidal activity against Lolium perenne (perennial ryegrass) at 125 g a.i./ha measured after 21 days in presence of 0.2% X-77 adjuvant; format: functional
[19] = test system: Avena fatua; experiment: Post-emergence herbicidal activity against Avena fatua at 125 g a.i./ha measured after 21 days in presence of 0.2% X-77 adjuvant; format: functional
[20] = test system: Triticum aestivum; experiment: Phytotoxicity against Triticum aestivum (wheat) at 125 g a.i./ha applied post-emergence measured after 21 days in presence of 0.2% X-77 adjuvant; format: organism-based; conditions: in vivo, other, 504 h
[21] = test system: Hordeum vulgare; experiment: Phytotoxicity against Hordeum vulgare (barley) at 30 g a.i./ha applied post-emergence measured after 21 days in presence of 0.2% X-77 adjuvant; format: organism-based; conditions: in vivo, other, 504 h
[22] = test system: Setaria faberi; experiment: Post-emergence herbicidal activity against Setaria faberi (Giant Foxtail) at 125 g a.i./ha measured after 21 days in presence of 0.2% X-77 adjuvant; format: functional
[23] = test system: Setaria faberi; experiment: Post-emergence herbicidal activity against Setaria faberi (Giant Foxtail) at 30 g a.i./ha measured after 21 days in presence of 0.2% X-77 adjuvant; format: functional
[24] = test system: Triticum aestivum; experiment: Phytotoxicity against Triticum aestivum (wheat) at 30 g a.i./ha applied post-emergence measured after 21 days in presence of 0.2% X-77 adjuvant; format: organism-based; conditions: in vivo, other, 504 h
[25] = test system: Alopecurus myosuroides; experiment: Post-emergence herbicidal activity against Alopecurus myosuroides at 125 g a.i./ha measured after 21 days in presence of 0.2% X-77 adjuvant; format: functional
[26] = test system: Lolium perenne; experiment: Post-emergence herbicidal activity against Lolium perenne (perennial ryegrass) at 30 g a.i./ha measured after 21 days in presence of 0.2% X-77 adjuvant; format: functional
[27] = test system: Avena fatua; experiment: Post-emergence herbicidal activity against Avena fatua at 30 g a.i./ha measured after 21 days in presence of 0.2% X-77 adjuvant; format: functional
[28] = test system: Hordeum vulgare; experiment: Phytotoxicity against Hordeum vulgare (barley) at 125 g a.i./ha applied post-emergence measured after 21 days in presence of 0.2% X-77 adjuvant; format: organism-based; conditions: in vivo, other, 504 h
[29] = Half life of hydrolysis at pH 7 at 50 degC; format: ADME; conditions: buffer
[30] = test system: Hordeum vulgare; experiment: Phytotoxicity against Hordeum vulgare (barley) at 125 g a.i./ha applied post-emergence measured after 21 days; format: organism-based; conditions: in vivo, other, 504 h
[31] = test system: Hordeum vulgare; experiment: Phytotoxicity against Hordeum vulgare (barley) at 500 g a.i./ha applied post-emergence measured after 15 days; format: organism-based; conditions: in vivo, other, 360 h
[32] = test system: Avena fatua; experiment: Post-emergence herbicidal activity against Avena fatua at 500 g a.i./ha measured after 15 days; format: functional
[33] = test system: Alopecurus myosuroides; experiment: Post-emergence herbicidal activity against Alopecurus myosuroides at 500 g a.i./ha measured after 15 days; format: functional
[34] = test system: Triticum aestivum; experiment: Phytotoxicity against Triticum aestivum (wheat) at 125 g a.i./ha applied post-emergence measured after 21 days; format: organism-based; conditions: in vivo, other, 504 h
[35] = test system: Lolium perenne; experiment: Post-emergence herbicidal activity against Lolium perenne (perennial ryegrass) at 125 g a.i./ha measured after 21 days; format: functional
[36] = test system: Avena fatua; experiment: Post-emergence herbicidal activity against Avena fatua at 125 g a.i./ha measured after 21 days; format: functional
[37] = test system: Lolium perenne; experiment: Post-emergence herbicidal activity against Lolium perenne (perennial ryegrass) at 500 g a.i./ha measured after 15 days; format: functional
[38] = test system: Triticum aestivum; experiment: Phytotoxicity against Triticum aestivum (wheat) at 500 g a.i./ha applied post-emergence measured after 15 days; format: organism-based; conditions: in vivo, other, 360 h
[39] = test system: Alopecurus myosuroides; experiment: Post-emergence herbicidal activity against Alopecurus myosuroides at 125 g a.i./ha measured after 21 days; format: functional
[40] = test system: Setaria faberi; experiment: Post-emergence herbicidal activity against Setaria faberi (Giant Foxtail) at 2000 g a.i./ha after 21 days; format: functional
[41] = test system: Avena fatua; experiment: Post-emergence herbicidal activity against Avena fatua at 500 g a.i./ha after 21 days; format: functional
[42] = test system: Alopecurus myosuroides; experiment: Herbicidal activity against Alopecurus myosuroides at > / = 250 g a.i./ha in presence of cloquintocet-mexyl; format: functional, organism-based
[43] = test system: Avena fatua; experiment: Post-emergence herbicidal activity against Avena fatua at 2000 g a.i./ha after 21 days; format: functional
[44] = test system: Lolium multiflorum; experiment: Herbicidal activity against Lolium multiflorum (Italian ryegrass) at 125 g a.i./ha in presence of cloquintocet-mexyl; format: functional, organism-based
[45] = test system: Setaria faberi; experiment: Post-emergence herbicidal activity against Setaria faberi (Giant Foxtail) at 500 g a.i./ha after 21 days; format: functional
[46] = test system: Apera spica-venti; experiment: Herbicidal activity against Apera spica-venti at 125 g a.i./ha in presence of cloquintocet-mexyl; format: functional, organism-based
[47] = test system: Lolium perenne; experiment: Post-emergence herbicidal activity against Lolium perenne (perennial ryegrass) at 500 g a.i./ha after 21 days; format: functional
[48] = test system: Lolium perenne; experiment: Post-emergence herbicidal activity against Lolium perenne (perennial ryegrass) at 2000 g a.i./ha after 21 days; format: functional
[49] = test system: Avena fatua; experiment: Herbicidal activity against Avena fatua at > / = 250 g a.i./ha in presence of cloquintocet-mexyl; format: functional, organism-based

SMILES	Activity [1]	Activity [2]	Activity [3]	Activity [4]	Activity [5]	Activity [6]	Activity [7]	Activity [8]	Activity [9]	Activity [10]	Activity [11]	Activity [12]	Activity [13]	Activity [14]	Activity [15]	Activity [16]	half-life [29]	other results
CCc1cc(C)cc(CC)c1C1C(=O)N2CCOCCN2C1=O [PINOXADEN DIONE]	10%	0%	90%	90%	0%	40%	0%	90%	20%	90%	100%	100%	0%	90%	50%	90%	–	–
CCc1cccc(CC)c1C1C(=O)N2CCCCN2C1=O	80%	–	–	90%	–	–	–	–	–	–	100%	100%	80%	80%	–	–	–	Activity [17]: 80%; Activity [18]: 40%; Activity [19]: 80%; Activity [20]: 0%; Activity [21]: 10%; Activity [22]: 40%; Activity [23]: 40%; Activity [24]: 40%; Activity [25]: 60%; Activity [26]: 50%; Activity [27]: 90%; Activity [28]: 0%
CCCCCCCS(=O)(=O)Oc1c(-c2c(CC)cc(C)cc2CC)c(=O)n2n1CCOCC2	20%	–	–	90%	–	–	–	–	–	–	80%	100%	0%	100%	–	–	3 h	–
Cc1cc(C)c(C2C(=O)N3CCCCN3C2=O)c(C)c1 [CGA-271312]	–	–	–	–	–	–	–	–	–	–	–	–	–	–	–	–	–	Activity [30]: 40%; Activity [31]: 90%; Activity [32]: 90%; Activity [33]: 60%; Activity [34]: 0%; Activity [35]: 40%; Activity [36]: 50%; Activity [37]: 90%; Activity [38]: 60%; Activity [39]: 40%
Cc1cc(C)c(-c2c(OC(=O)C(C)(C)C)n3n(c2=O)CCOCC3)c(C)c1	–	–	–	–	–	–	–	–	–	–	–	–	–	–	–	–	–	Activity [40]: 100%; Activity [41]: 90%; Activity [42]: Active; Activity [43]: 100%; Activity [44]: Active; Activity [45]: 90%; Activity [46]: Active; Activity [47]: 90%; Activity [48]: 90%; Activity [49]: Active
CCc1cc(C)cc(CC)c1-c1c(OC(=O)C(C)(C)C)n2n(c1=O)CCOCC2 [PINOXADEN]	10%	0%	90%	90%	0%	20%	0%	90%	30%	95%	100%	100%	0%	100%	30%	90%	20.6 h	–
